Reference: patent publication US6514967B1 (priority 1997, dated 2003)
Like-named read-outs stand apart in the source and are kept apart here.

Experiments:
xanthine oxidase = xanthine oxidase (Homo sapiens, UniProt P47989); assay: Action of the derivatives on xanthine oxidase; assay type: biochemical; conditions: for inhibition at 100 µM: read-out: % inhibition 100 μM; for inhibition at 500 µM: read-out: % inhibition 500 μM
Experimental: Action of the derivatives on xanthine oxidase:
(Free Radical Biology & Medicine, Vol 20, No 1, pp.35-43, 1996)
[…] of xanthine 20 mM in soda 0.1N and […] of the test product in phosphate buffer at pH 7.4 were placed in a final volume of 2 ml. Reaction is started by adding […] of solution of xanthine oxidase at 0.56 U/ml. Formation of […] is monitored by UV spectroscopy at 290 nm. Allopurinol is a reference inhibitor.

[1] = Chemical test of capture of OH• radicals (deoxyribose competition); assay type: biochemical; conditions: rate constant of reaction of the competitor with OH•, competition with 2-deoxyribose, UV at 532 nm
Experimental: A) Chemical test of capture of OH^• radicals:
(Free Rad. Res. Comms., Vol. 14, Nos. 5-6, pp. 363-372)
[…] of buffer (30 mM Na2HPO4.7H2O, 40 mM NaCl, 0.1 mM EDTA), 125 ml of deoxyribose at 2.10^−3 mM and 125 ml of 4-times concentrated solution of radical inhibitor (final concentration from 0 to 0.5 mM) were placed in glass haemolysis tubes cooled on an ice bath. […] of FeSO4 at 10^−3 mM (in water) is added at time 0. After 15 min of incubation the reaction is stopped with 250 ml of trichloroacetic acid at 3%, to which is added 250 ml of solution of thiobarbituric acid at 1.5% (in water). The tubes are kept at 100° C. for 10 min then cooled for detection with UV at 532 nm. The linear relation A0/A=1+ks/dkr [(competitor)/(2-deoxyribose)] was used, where A0 and A denote the absorbances in the absence and in the presence of competitor, ks is the rate constant of reaction of the competitor with OH• and kdr=1.9*10^9 M^−1 sec^−1 is the rate constant of reaction of 2-deoxyribose with OH•. Thus ks is equal to the gradient of the straight line A0/A f((competitor)/(2-deoxyribose)) multiplied by kdr.

astrocytes = assay: Recapture of glutamate by cultures of astrocytes, radicals generated by xanthine/xanthine oxidase (X/XO); assay type: cell-based, rats
Experimental: B) Procedure with cultures of astrocytes and generation of radicals by the xanthine/xanthine oxidase (X/XO) pair
400 μl of D-lysine at 25 μg/ml (9 ml of D-lysine at 100 μg per ml of borate buffer (0.1M pH 8.4)+27 ml of water) is placed in each well of 24-well culture plates. The wells are left in the stove (5% CO2, 37° C.) over night. Each well is rinsed with 2 times 750 μl of Hanks before receiving the culture medium. 3 lateral demi cortices are taken from rats aged 1 to 2 days. (The hippocampus, the striatum and the meninges are removed). The demi cortices are placed in 2 ml of trypsin-EDTA then put in the stove for 30 min. The action of the trypsin is stopped with 10% of decomplemented foetal calf serum (200 μl). The serum and the trypsin are removed then the cells are dissociated with a pipette in 10 ml of medium (MEM 225 ml+FCS-D 25 ml+glucose 20% 7.5 ml) (MEM=minimum essential medium; FCS-D=decomplemented foetal calf serum). The culture medium is made up to 30 ml, stirred and placed at 400 μl per well. The medium is changed twice weekly for 18 days. The last replacement is effected 4 days prior to the treatment, with a medium without decomplemented foetal calf serum. (MEM 31.5 ml+glucose 20% 1.05 ml).
Treatment takes place on the 18th or 19th day.
Each well is washed with 750 μl of buffer (NaCl 124 mM, KCl 4.6 mM, CaCl2 1.2 mM, MgCl2 1.3 mM, KH2PO4 0.416 mM, NaHCO3 26.75 mM, glucose 10 mM; pH 7.4) for 10 min. The cells are incubated in the presence of xanthine (500 μM) and of the test product (from 0 to 1 mM). After 10 min, xanthine oxidase is added (50 mU/ml) and it is again left to incubate for 10 min. Release of radicals is stopped by washing 3 times with catalase (3000 U/ml). The glutamate is then recaptured in a solution of radioactive glutamate (^3H) at 40 μM (isotopic dilution 1/20000). Recapture is stopped by washing 3 times with the cold buffer. The cells are detached with soda 0.2N and the radioactivity is measured.
Firstly we checked that the inhibition of recapture observed in the presence of X/XO is indeed due to a radical process. For this we replaced the test products with two enzymes: SOD (SuperOxide Dismutase) and catalase (FIG. 1). […] The Fenton reaction converting hydrogen peroxide to OH• is thus short-circuited. […] However, as there seems to be sufficient reducing agent in the medium to promote the formation of H2O2 starting from O2^•^−, it appears likely that a substantial proportion of H2O2 gives OH• (a highly reactive radical).
FIGS. 3 to 8 are the mean of at least 4 independent tests in which the protective power of IC180, IC023, IC241, IC2-16, IC178, IC140, IC209, IC237, IC146, IC193, IC194, IC242, IC207, IC2-19, IC219, IC2-21, and IC249, as a function of the dose, was tested against a fixed concentration of radicals, and therefore of X/XO. In the case of IC180, the increase in recapture appears to be linear (up to 100% is found in some tests). […] Since IC023 alone only becomes “toxic” starting from 1 mM, the variation observed starting from 0.6 mM might reflect the existence of metabolites that are poorly tolerated by the cells. The derivative morpholine IC180 is more interesting.

[2] = product at 100 μM, UV at 290 nm
[3] = product at 500 μM, UV at 290 nm

xanthine oxidase, sequence (P47989 whole entry, species assumed): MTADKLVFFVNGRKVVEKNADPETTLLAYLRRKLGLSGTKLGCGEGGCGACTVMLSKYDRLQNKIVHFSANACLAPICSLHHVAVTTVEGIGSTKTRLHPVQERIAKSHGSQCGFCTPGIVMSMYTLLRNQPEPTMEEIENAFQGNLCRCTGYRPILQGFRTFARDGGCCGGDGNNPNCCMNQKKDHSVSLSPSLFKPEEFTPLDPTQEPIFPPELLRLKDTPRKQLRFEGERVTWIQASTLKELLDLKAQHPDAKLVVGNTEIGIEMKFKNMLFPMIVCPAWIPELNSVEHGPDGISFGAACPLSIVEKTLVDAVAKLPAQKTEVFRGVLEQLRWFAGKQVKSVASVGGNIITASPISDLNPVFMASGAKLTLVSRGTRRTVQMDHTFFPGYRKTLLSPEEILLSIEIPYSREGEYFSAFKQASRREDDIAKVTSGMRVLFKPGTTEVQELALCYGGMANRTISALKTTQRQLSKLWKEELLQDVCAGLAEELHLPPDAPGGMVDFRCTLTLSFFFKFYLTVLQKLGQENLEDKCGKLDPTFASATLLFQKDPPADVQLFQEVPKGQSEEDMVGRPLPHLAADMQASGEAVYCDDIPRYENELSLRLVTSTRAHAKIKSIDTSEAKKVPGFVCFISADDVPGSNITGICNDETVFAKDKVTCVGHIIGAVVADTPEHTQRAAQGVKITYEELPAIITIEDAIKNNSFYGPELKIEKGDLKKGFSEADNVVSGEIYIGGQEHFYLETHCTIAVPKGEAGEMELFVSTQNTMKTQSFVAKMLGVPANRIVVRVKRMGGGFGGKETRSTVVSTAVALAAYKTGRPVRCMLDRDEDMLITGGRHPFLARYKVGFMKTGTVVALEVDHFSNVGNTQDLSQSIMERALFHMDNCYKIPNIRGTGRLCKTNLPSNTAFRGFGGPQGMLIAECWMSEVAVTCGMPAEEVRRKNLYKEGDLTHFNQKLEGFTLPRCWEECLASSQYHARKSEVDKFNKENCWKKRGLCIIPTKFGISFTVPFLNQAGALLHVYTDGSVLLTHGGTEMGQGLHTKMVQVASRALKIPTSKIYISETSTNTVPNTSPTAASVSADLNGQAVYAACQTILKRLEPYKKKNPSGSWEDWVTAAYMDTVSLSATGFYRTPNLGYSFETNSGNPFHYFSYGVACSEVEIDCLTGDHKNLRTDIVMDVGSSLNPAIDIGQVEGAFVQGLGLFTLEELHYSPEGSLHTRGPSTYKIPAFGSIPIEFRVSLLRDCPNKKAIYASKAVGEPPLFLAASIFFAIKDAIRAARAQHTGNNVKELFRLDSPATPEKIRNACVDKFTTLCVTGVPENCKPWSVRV

Oc1ncnc2[nH]ncc12 [Allopurinol, reference compound]
inhibition at 100 µM (xanthine oxidase): 92% | inhibition at 500 µM (xanthine oxidase): 90%

O=C[C@@H](O)[C@@H](O)[C@H](O)[C@H](O)CO [D-mannose, reference compound]
ks (10^−9M^−1 sec^−1) (±SEM) [1]: 0.94±0.06 10^−9M^−1 sec^−1

Cl.c1cc2c(s1)C(N1CCOCC1)CCC2 (stereo not drawn) [IC2-16]
ks (10^−9M^−1 sec^−1) (±SEM) [1]: 3.33 ± 0.15 10^−9M^−1 sec^−1

c1cc2c(s1)CCCC2N1CCCCC1 (stereo not drawn) [IC023, piperidino-4-tetrahydro-4,5,6,7-benzothiophene]
% recapture from which the opposite effect is observed (astrocytes; fixed concentration of X/XO): ≥ 15% | concentration from which the variation (opposite effect) is observed (astrocytes; in presence of X/XO): ≥ 0.6 mM | concentration from which the product alone becomes "toxic" (astrocytes; product alone, astrocytes): ≥ 1000 µM | ks (10^−9M^−1 sec^−1) (±SEM) [1]: 3.61 ± 0.16 10^−9M^−1 sec^−1 | inhibition at 100 µM (xanthine oxidase): -6%

Cl.NC1CCCc2sccc21 (stereo not drawn) [IC088, amino-4-tetrahydro-4,5,6,7-benzothiophene]
ks (10^−9M^−1 sec^−1) (±SEM) [1]: 3.37 ± 0.25 10^−9M^−1 sec^−1 | inhibition at 100 µM (xanthine oxidase; [2]): -15%

Cl.NC1CCCc2ccsc21 (stereo not drawn) [IC178, amino-7-tetrahydro-4,5,6,7-benzothiophene]
ks (10^−9M^−1 sec^−1) (±SEM) [1]: 2.76 ± 0.06 10^−9M^−1 sec^−1

Cl.c1cc2c(s1)CCCC2N1CCSCC1 (stereo not drawn) [IC193, thiomorpholine-4-tetrahydro-4,5,6,7-benzothiophene]
ks (10^−9M^−1 sec^−1) (±SEM) [1]: 3.41 ± 0.25 10^−9M^−1 sec^−1 | inhibition at 100 µM (xanthine oxidase; [2]): -7% | inhibition at 500 µM (xanthine oxidase; [3]): -2%

CN1CCN(C2CCCc3sccc32)CC1 (stereo not drawn) [IC194, N-methyl-piperazine-4-tetrahydro-4,5,6,7-benzothiophene]
ks (10^−9M^−1 sec^−1) (±SEM) [1]: 3.50 ± 0.23 10^−9M^−1 sec^−1 | inhibition at 100 µM (xanthine oxidase; [2]): -15% | inhibition at 500 µM (xanthine oxidase; [3]): 10%

Cl.OC1CCN(C2CCCc3sccc32)CC1 (stereo not drawn) [IC209, (4 hydroxy-piperidine)-4-tetrahydro-4,5,6,7-benzothiophene]
ks (10^−9M^−1 sec^−1) (±SEM) [1]: 3.27 ± 0.50 10^−9M^−1 sec^−1

Cl.c1cc2c(s1)SCCC2N1CCCCC1 (stereo not drawn) [IC237, piperidino-4-tetrahydro-4,5,6,7-thio-7-benzothiophene]
ks (10^−9M^−1 sec^−1) (±SEM) [1]: 3.45 ± 0.19 10^−9M^−1 sec^−1 | inhibition at 100 µM (xanthine oxidase): -9% | inhibition at 500 µM (xanthine oxidase): -8%

Cl.c1cc2c(s1)SCCC2N1CCOCC1 (stereo not drawn) [IC241, morpholine-4 tetrahydro-4,5,6,7-thio-7-benzothiophene]
ks (10^−9M^−1 sec^−1) (±SEM) [1]: 3.01 ± 0.14 10^−9M^−1 sec^−1 | inhibition at 100 µM (xanthine oxidase; [2]): 7% | inhibition at 500 µM (xanthine oxidase; [3]): -8%

CN1CCN(C2CCSc3sccc32)CC1 (stereo not drawn) [IC242, (N-methyl piperazine)-4-tetrahydro-4,5,6,7-thio-7-benzothiophene]
ks (10^−9M^−1 sec^−1) (±SEM) [1]: 3.00 ± 0.19 10^−9M^−1 sec^−1

O=C(O)c1ccccc1O [ac.salicyl., salicylic acid, reference compound]
ks (10^−9M^−1 sec^−1) (±SEM) [1]: 3.02 ± 0.18 10^−9M^−1 sec^−1 | ks (10^−9M^−1 sec^−1) (±SEM) ([1]; listed as salicylic acid): 3.02±0.18 10^−9M^−1 sec^−1

O=C1O[C@H]([C@@H](O)CO)C(O)=C1O [vitamin C, reference compound]
ks (10^−9M^−1 sec^−1) (±SEM) [1]: 1.87±0.17 10^−9M^−1 sec^−1

catalase
recapture of glutamate with enzyme in place of test product (in words) (astrocytes; in presence of X/XO, control, FIG. 1): allows a normal degree of recapture to be attained
